Measured values as given in ChEMBL document CHEMBL5724709, “EUbOPEN Chemogenomics Library - IncuCyte” (2024).
Square brackets hold non-standard residues; d marks the D form. Peptide text beside a SMILES is read from it. * marks the point of attachment. Benzoyl(4-OPh) = O=C(c1ccc(Oc2ccccc2)cc1)*; Lys(Et2) = CCN(CC)CCCC[C@H](N)C(=O)O; d(aIle) = CC[C@H](C)[C@@H](N)C(=O)O; Gly(cPent) = N[C@H](C(=O)O)C1CCCC1; NH(propargyl) = C#CCN*

Experiments:
Format in all cases: toxicity, cell-based
HEK-293T = test: Incucyte cell viability with HEK293T; details: human, 24 h, 10 µM, compound concentration 10 uM
Fibroblast = test: Incucyte cell viability with human fibroblast; details: 24 h, 10 µM, compound concentration 10 uM
U2OS = test: Incucyte cell viability with U2OS; details: human, 24 h, 10 µM, compound concentration 10 uM
Note: unitless GR value; below 1 slowed growth and below 0 cell loss.

| SMILES | Growth Rate (HEK-293T; replicate number 1) | Growth Rate (HEK-293T; replicate number 2) | Growth Rate (Fibroblast; replicate number 1) | Growth Rate (Fibroblast; replicate number 2) | Growth Rate (U2OS; replicate number 1) | Growth Rate (U2OS; replicate number 2) |
| --- | --- | --- | --- | --- | --- | --- |
| O=C(NCCCn1ccnc1)c1cc2nc(-c3ccccc3)cc(-c3ccccc3)n2n1 | 0.48 | 0.98 | 0.96 | 1 | 0.13 | 0.75 |
| CS(=O)(=O)c1ccc(-c2cnc(NCc3ccco3)n3cnnc23)cc1 | 0.63 | 0.95 | 1 | 0.87 | 1 | 0.66 |
| CCCOc1cccc(Oc2cc3c(cc2NS(=O)(=O)c2cccc(C(=O)NCCOCCOCCOCC(=O)N[C@H](C(=O)N4C[C@H](O)C[C@H]4C(=O)NCc4ccc(-c5scnc5C)cc4)C(C)(C)C)c2)n(C)c(=O)n3C)c1 | 0.11 | 0.31 | 1 |  | 0.91 | 0.63 |
| CC(=O)OCCN1C(=O)c2c(C)nc3ccc(S(=O)(=O)N4CCOCC4)cc3c2C1=O | 0.92 | 1 | 0.85 | 1 | 0.83 | 1 |
| N=C(N)N/N=C/c1cccc(Cl)c1Cl | 0.5 | 0.8 | 0.46 | 0.86 | 0.24 | 0.53 |
| CCCn1/c(=N/C(=O)c2cccc(C(N)=O)c2)[nH]c2ccccc21 | 0.77 | 0.9 | 1 |  | 1 | 0.99 |
| Cl.Cl.O=C(O)Cn1nnc(-c2ccc(CN(CCCCOc3ccc(CN4CCCC4)cc3)CCc3ccccc3)cc2)n1 | 0.53 | 0.89 | 0.66 | 1 | 1 | 0.91 |
| O=C(C=Cc1ccc(O)cc1)c1ccc(O)cc1O | 0.72 | 0.82 | 0.64 | 1 | 0.9 | 0.75 |
| COc1cc2c(NC3CCN(C)CC3)nc(N3CCCN(C)CC3)nc2cc1OCCCN(C)C | 0.78 | 1 | 1 |  | 0.63 | 1 |
| O=c1[nH]ccc2cc(F)c(NS(=O)(=O)c3ccc(N4CC[C@@H](O)C4)s3)cc12 | 0.79 | 0.98 | 0.99 | 0.64 | 1 | 0.94 |
| FC(F)(F)Oc1ccc(Oc2ccnc(N3CCC(NC(=S)Nc4cccnc4)CC3)c2Cl)c(Cl)c1 | -0.1 | 0.12 | 0.38 | -0.07 | 0.35 | 0.56 |
| Cc1cc(Cn2c(=O)n(Cc3cnc(C)s3)c(=O)c3cc(S(=O)(=O)NC4(C)CC4)ccc32)n(C)n1 | 0.6 | 0.74 | 0.47 | 0.68 | 0.64 | 0.54 |
| CCNC(=O)NCCSC[C@H]1O[C@@H](n2cnc3c(N)ncnc32)[C@H](O)[C@@H]1O | 0.71 | 0.87 | 0.65 | 0 | 1 | 0.72 |
| C#CCNC(=O)[C@H](CO)NC(=O)[C@H](CCCCN(CC)CC)NC(=O)[C@H](NC(=O)[C@@H](NC(=O)c1ccc(Oc2ccccc2)cc1)C1CCCC1)[C@@H](C)CC ({Benzoyl(4-OPh)}-[Gly(cPent)][d(aIle)][Lys(Et2)]S-{NH(propargyl)}) | 0.58 | 1 | 1 | 0.24 | 1 |  |
